Test results reported in article PMC11938014, “Development and Application of Small Molecule–Peptide Conjugates as Cathepsin K-Specific Covalent Irreversible Inhibitors in Human Osteoclast and Lung Cancer” (JACS Au, 2025).

Legend:
human osteoclasts = test: Osteoclast differentiation assay on plastic (TRAP); type: cell-based; conditions: osteoclasts grown on plastic, 7 days
Protocol: To assess osteoclast differentiation, 7.5 × 10^4 cells from PBMCs, cells preincubated with M-CSF, were cultured in 96-well plates. After 3 days, medium was replaced with differentiation medium (αMEM; M8042 sigma, 10% FBS, 5% Penstrep and L-Glu, BI) supplemented with 25 ng/mL M-CSF and 25 ng/mL RANKL (R&D systems, 390-TN) and different inhibitors: GD20 (1 or 5 μM), ODN (1 or 5 μM), or vehicle. The differentiation medium was changed after 2 and 5 days. Cells were fixed on the 7th day with 4% PFA for 10 min at room temperature, they were washed three times with PBS, and then stained using a TRAP staining kit (Sigma-Aldrich, 387A-1KT) according to the manufacturer’s protocol with additional staining of the nuclei with DAPI. Osteoclast parameters were obtained by analysis of three wells from each- treatment. […] The total osteoclast surface area was determined using ImageJ software by manually tracing individual osteoclasts perimeters.
Figure S7. Identification of fluorescent band identity. […] G els were scanned for fluorescence and then underwent immunoblotting with different cathepsin -specific antibodies . […]
Fluorescence Immunoblot s.ch. = single chain, […]
Quantification of the total number of osteoclasts, and c) osteoclast-cell area in each treatment […]
Figure S9. […] Cathepsin activity was detected by labeling intact osteoclast with GB123, a pan-cathepsin activity-based probe. […]

CTSK in human OCs = biological target: T1, CTSK in human OCs (Homo sapiens, UniProt P43235); test: Gel-based residual cathepsin activity in human osteoclasts (GB123) and immunoblot; type: cell-based
T1 construct: endogenous in cells; host or cells: primary human osteoclasts differentiated from blood monocytes with M-CSF and RANKL
T1 sequence (P43235 115-329): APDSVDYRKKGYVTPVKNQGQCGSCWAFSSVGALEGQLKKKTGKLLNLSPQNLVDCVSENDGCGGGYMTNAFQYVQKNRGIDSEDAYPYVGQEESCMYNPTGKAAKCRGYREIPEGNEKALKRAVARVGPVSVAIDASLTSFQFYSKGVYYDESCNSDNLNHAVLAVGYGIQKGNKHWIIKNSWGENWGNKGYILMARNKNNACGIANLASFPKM
Protocol: Figure 6 CTSK inhibition in human osteoclasts. (a) Scheme of the process of maturation of osteoclasts (OCs) derived from human monocytes in the presence of RANKL and M-CSF. (b) Representative pictures of bone resorption after incubation with human OCs treated with vehicle or inhibitors for 10–14 days. Bone resorption was observed by a toluidine blue stain. Increased staining indicates a higher number of resorption pits and greater bone resorption. (c) Quantitative analysis of pit formation in bone slices after incubation with OC treated with GD20 or ODN (1, 5 μM) relative to vehicle treated slices. Data represent mean ± standard errors, and asterisks represent p values relative to control, *p < 0.05, **p < 0.01, ***p < 0.001, n = 3 bone slices. (d) Representative images of tartrate-resistant acid phosphatase (TRAP) staining of the human osteoclasts on bone slices in the presence of vehicle or inhibitors, as indicated. […] (e) Quantification of osteoclasts number on bone slices after inhibitor treatment, detected by TRAP staining. (f) Human OCs were treated with vehicle or increasing concentrations of GD20 for 11 days (changing the medium every 2–3 days). The activity of CTSK in the cells was detected by 2 h labeling with a pan-cathepsin activity-based probe, GB123, followed by a fluorescence scan of the SDS-PAGE detecting CTSK attached to the probe; the red arrow points to the bands of CTSK (above 25 kDa). CTSK immunoblot of the same OCs is presented aside.
Cells were seeded 3 × 10^6 per 24-well plate (Primaria, Corning) in 1 mL of RPMI 1640 medium supplemented with 10% FBS and 50 μg/mL gentamicin. The next day, the medium was removed, and the adherent cells were washed with α-MEM and cultured for 14 consecutive days in α-MEM supplemented with 10% FBS, 1% penicillin, 1% streptomycin (Biological Industries), 100 ng/mL RANKL (R&D Systems), and 25 ng/mL M-CSF (R&D Systems) (for osteoclast) or with 25 ng/mL M-CSF and IL-4 (macrophage). Every 3 days, the media was changed with the required amount of M-CSF and RANKL until the giant osteoclasts appeared or with M-CSF and IL-4. […]

With `CC(C)C[C@H](N[C@@H](c1ccc(-c2ccc(S(C)(=O)=O)cc2)cc1)C(F)(F)F)C(=O)NCC(=O)COC(=O)[C@@H]1CCCN1C(=O)[C@H](CC(C)C)NC(=O)OCC1c2ccccc2-c2ccccc21` [GD20] the total osteoclast area (human osteoclasts) was “slightly decreased”, the “CTSK activity in human OC” value (CTSK in human OCs; 1 μM, 11 days, GB123 labeling) was “blocked most of the CTSK activity” and the “CTSB activity in human OC” value (CTSK in human OCs; accompanying CTSK inhibition, GB123 labeling) was “increase in CTSB activity”. For the same compound, the “CTSK protein levels by immunoblot” value (CTSK in human OCs; all inhibitor concentrations) was “elevated CTSK protein levels”.
